Test results from patent publication US11648248B1 (King Abdulaziz University, priority 2022, dated 2023).
Converted amounts (≈) assume the structure as drawn. Like-named read-outs stand apart in the source and are kept apart here.

Tests used:
Type in all cases: cell-based
[1] = system: Listeria monocytogenes ATCC-19111; assay: MBC by plating from MIC wells
Description: (§1) Based upon the initial results obtained, the active compounds were further screened against additional clinical isolates of methicillin-sensitive S. aureus (MSSA), methicillin-resistant S. aureus (MRSA), vancomycin-resistant S. aureus (VRSA), Staphylococcus epidermidis, vancomycin-resistant Enterococcus faecium (VRE), vancomycin-resistant Enterococcus faecalis (VRE) and Streptococcus pneumoniae, as presented in Table 2. Additionally, we examined whether the compounds were bacteriostatic (inhibit bacteria from growing) or bactericidal (kill bacteria) by determining the minimum bactericidal concentration (MBC). The MBC was determined by plating 5 μL from each well where no growth was present (in the MIC plates) onto tryptic soya agar plates and incubating plates at 37° C. for 24 hours. The MBC was categorized as the lowest concentration that generated a 99.9% reduction in bacterial colony-forming units (Table 3).

[2] = system: Vancomycin-resistant Staphylococcus aureus (VRSA10); assay: MBC by plating from MIC wells; conditions: read-out: MBC VRSA10
Description: as §1

[3] = system: Cephalosporin-resistant Streptococcus pneumoniae ATCC-700677; assay: MBC by plating from MIC wells
Description: as §1

[4] = system: Staphylococcus epidermidis (NRS-101); assay: MIC of active MY compounds; conditions: NRS101, read-out: MIC S. epidermidis NRS 101
Description: as §1
(§2) The minimum inhibitory concentrations (MICs) of the tested compounds and control drugs; linezolid, vancomycin, gentamicin (antibiotics) and fluconazole and 5-fluorocytosine (5-FC) (antifungal drugs) were determined using the broth microdilution method, according to guidelines outlined by the Clinical and Laboratory Standards Institute (CLSI)^1, 2, 3 against clinically-relevant bacterial (methicillin-resistant Staphylococcus aureus (MRSA), Escherichia coli and Clostridium difficile strains) and fungal (Candida albicans) strain. S. aureus and E. coli were grown aerobically overnight on tryptone soy agar plates at 37° C. C. difficile was grown anaerobically on brain heart infusion supplemented agar at 37° C. for 48 hours. C. albicans was grown aerobically overnight on yeast peptone dextrose (YPD) agar plate at 35° C. Afterwards, a bacterial solution equivalent to 0.5 McFarland standard was prepared and diluted in cation-adjusted Mueller-Hinton broth (CAMHB) (for S. aureus and E. coli) to achieve a bacterial concentration of about 5×10^5 CFU/mL. C. difficile was diluted in brain heart infusion supplemented broth, supplemented with yeast extract, hemin and vitamin K to achieve a bacterial concentration of about 5×10^5 CFU/mL. C. albicans was diluted in Roswell Park Memorial Institute (RPMI 1640) medium with glutamine and without bicarbonate (GIBCO by Life Technologies, Green Island, N.Y., USA) which was buffered to pH 7.0 with 0.165 M of [3-(N-morpholino) propanesulfonic acid] (MOPS) (dot scientific inc., Burton, Mich., USA) to achieve a fungal concentration of about 1.5×10^3 CFU/mL. Compounds and control drugs were added in the first row of the 96-well plates and serially diluted with the corresponding media containing bacteria/fungi. Plates were then, incubated aerobically at 37° C. for 18-20 hours (for S. aureus and E. coli). C. difficile was incubated anaerobically at 37° C. for 48 hours. C. albicans was incubated aerobically at 37° C. for 24 hours.

[5] = system: Vancomycin-resistant Staphylococcus aureus (VRSA10); assay: MIC of active MY compounds; conditions: read-out: MIC VRSA10
Description: as §1, §2

[6] = system: Methicillin-resistant Staphylococcus aureus (MRSA NRS-123, USA400); assay: MIC of active MY compounds; conditions: read-out: MIC MRSA NRS123 (USA400)
Description: as §1, §2

[7] = system: Cephalosporin-resistant Streptococcus pneumoniae ATCC-700677; assay: MIC of active MY compounds; conditions: ATCC700677, read-out: MIC S. pneumoniae ATCC 700677
Description: as §1, §2

[8] = system: Cephalosporin-resistant Streptococcus pneumoniae ATCC-15916; assay: MIC of active MY compounds; conditions: ATCC15916, read-out: MIC S. pneumoniae ATCC-15916
Description: as §1, §2

[9] = system: Methicillin-sensitive Staphylococcus aureus ATCC-6538 (MSSA ATCC-6538); assay: MIC of active MY compounds; conditions: read-out: MIC MSSA ATCC-6538
Description: as §1, §2

[10] = system: Vancomycin-resistant Enterococcus fecalis ATCC-51299 (VRE ATCC-51299); assay: MIC of active MY compounds; conditions: read-out: MIC VRE ATCC-51299
Description: as §1, §2

[11] = system: Methicillin-sensitive Staphylococcus aureus (MSSA NRS-107); assay: MIC of active MY compounds; conditions: read-out: MIC MSSA NRS-107
Description: as §1, §2

[12] = system: Methicillin-resistant Staphylococcus aureus (MRSA NRS-119); assay: MIC of active MY compounds; conditions: read-out: MIC MRSA NRS119
Description: as §1, §2

[13] = system: Vancomycin-resistant Enterococcus faecium ATCC-700221 (VRE ATCC-700221); assay: MIC of active MY compounds; conditions: read-out: MIC VRE ATCC-700221
Description: as §1, §2

[14] = system: Vancomycin-resistant Staphylococcus aureus (VRSA12); assay: MIC of active MY compounds; conditions: read-out: MIC VRSA12
Description: as §1, §2

Gram-positive bacteria = assay: Bacteriostatic or bactericidal by MBC versus MIC; conditions: MBC less than or at least three-fold the MIC
Description: as §1

[15] = ATCC19111, 99.9% reduction in CFU, read-out: MBC L. monocytogenes ATCC-19111
[16] = ATCC700677, 99.9% reduction in CFU, read-out: MBC S. pneumoniae ATCC 700677

Row | Structure (SMILES) | MBC [1, 15] [mg/L] | MBC ([2]; 99.9% reduction in CFU) [mg/L] | MBC [3, 16] [mg/L] | MIC [4] [mg/L] | MIC [5] [mg/L] | MIC [6] [mg/L] | MIC [7] [mg/L] | MIC [8] [mg/L] | MIC [9] [mg/L] | MIC [10] [mg/L] | MIC [11] [mg/L] | MIC [12] [mg/L] | MIC [13] [mg/L] | MIC [14] [mg/L] | bacteriostatic or bactericidal (MBC compared with MIC) (Gram-positive bacteria) | MBC ([1]; ATCC19111, read-out: MBC L. monocytogenes ATCC-19111) [mg/L] | MBC [2] [mg/L] | MBC ([3]; ATCC700677, read-out: MBC S. pneumoniae ATCC 700677) [mg/L]
1 | O=C(Nc1ccc(Oc2ccc(=O)[nH]n2)cc1)Nc1ccc(Cl)c(C(F)(F)F)c1 [MY31, 1-(4-chloro-3-(trifluoromethyl)phenyl)-3-(4-((6-oxo-1,6-dihydropyridazin-3-yl)oxy)phenyl)urea] | > 64 | > 64 | 2 (≈ 4.71 µM) | 0.5 | 0.5 | 0.5 | 0.5 | 0.5 | 0.5 | 2 | 0.5 | 0.5 | 1 | 1 | bacteriostatic | – | – | –
2 | CN[C@H](CC(C)C)C(=O)N[C@H]1C(=O)N[C@@H](CC(N)=O)C(=O)N[C@H]2C(=O)N[C@H]3C(=O)N[C@H](C(=O)N[C@H](C(=O)O)c4cc(O)cc(O)c4-c4cc3ccc4O)[C@H](O)c3ccc(c(Cl)c3)Oc3cc2cc(c3O[C@@H]2O[C@H](CO)[C@@H](O)[C@H](O)[C@H]2O[C@H]2C[C@](C)(N)[C@H](O)[C@H](C)O2)Oc2ccc(cc2Cl)[C@H]1O [Vancomycin, reference compound] | – | – | – | 2 | 64 | 1 | 1 | 1 | 1 | 32 | 2 | 1 | > 64 | 64 | – | 2 (≈ 1.38 µM) | > 64 | 2 (≈ 1.38 µM)
3 | O=C(Nc1cccc(Nc2ccc(Cl)nn2)c1)Nc1ccc(Cl)c(Cl)c1 [MY14, 1-(3-((6-chloropyridazin-3-yl)amino)phenyl)-3-(3,4-dichlorophenyl)urea] | > 64 | 8 (≈ 19.6 µM) | > 64 | 8 | 2 | 4 | 4 | 4 | 2 | 64 | 4 | 4 | 32 | 4 | – | – | – | –
4 | O=C(Nc1ccc(Oc2ccc(=O)[nH]n2)cc1)Nc1ccc(Cl)c(Cl)c1 [MY24, 1-(3,4-dichlorophenyl)-3-(4-((6-oxo-1,6-dihydropyridazin-3-yl)oxy)phenyl)urea] | 64 (≈ 164 µM) | > 64 | > 64 | 1 | 1 | 1 | 2 | 2 | 1 | 4 | 1 | 1 | 4 | 2 | bacteriostatic | – | – | –
5 | O=C(Nc1ccc(-c2ccc(=O)[nH]n2)cc1)Nc1ccc(Cl)c(Cl)c1 [MY21, 1-(3,4-dichlorophenyl)-3-(4-(6-oxo-1,6-dihydropyridazin-3-yl)phenyl)urea] | 0.5 (≈ 1.33 µM) | 2 (≈ 5.33 µM) | 4 (≈ 10.7 µM) | 1 | 1 | 1 | 2 | 2 | 1 | 4 | 1 | 1 | 2 | 1 | bactericidal | – | – | –
6 | CC(=O)NC[C@H]1CN(c2ccc(N3CCOCC3)c(F)c2)C(=O)O1 [Linezolid, reference compound] | 32 (≈ 94.9 µM) | > 64 | 16 (≈ 47.4 µM) | 0.5 | 1 | 1 | 1 | 1 | 0.5 | 1 | 1 | 64 | 1 | 1 | – | – | – | –
7 | CNC(=O)c1cc(Oc2ccc(NC(=O)Nc3ccc(Cl)c(C(F)(F)F)c3)cc2)ccn1 [Sorafenib, reference compound] | > 64 | > 64 | > 64 | 8 | 4 | 4 | 4 | 4 | 4 | > 64 | 8 | 2 | > 64 | 2 | – | – | – | –
